Row | melting point [°C] | Structure (SMILES)
1 | 261 to 263 | O=S(=O)(c1ccccc1)c1c[nH]c2ccncc12
2 | 157 to 158 | CCCN(C(=O)COc1c(OC)cccc1OC)C1CCc2c(ccc(O)c2O)C1 (stereo not given)
3 | 86 to 89 | CC(=O)OCc1ccc(N(c2ccccc2)c2ccc(C=O)cc2)cc1
4 | > 260 | O=C(O)c1cnc2cc(O)ccc2c1
5 | 108 to 110 | COCCN(C)S(=O)(=O)c1cc(-n2c(=O)cc(C(F)(F)F)n(C)c2=O)ccc1Cl
6 | 155 to 157 | N#Cc1ccc(CN2CC=C(/C=C/c3ccccc3)CC2)cc1
7 | 196 to 204 | CNC(=O)Nc1ccc2c(c1)C(=O)C1(CC1)O2
8 | 157 to 158 | Nc1ccc(Oc2ccccc2-c2ccccc2Oc2ccc(N)cc2)cc1
9 | 137 to 138 | CCOCn1c(Oc2ccccc2)c(C(C)C)c(=O)[nH]c1=O
10 | > 250 | C[Si](C)(C)Oc1nc(-c2ccccc2)nc2c1CC(S(=O)(=O)c1ccccc1)CC2 (stereo not given)
11 | 274 to 278 | Nc1c(NC=O)c(=O)[nH]c(=O)n1Cc1ccc(Cl)cc1
12 | 201 to 202 | COc1ccc2nc(Cl)c(C#N)cc2c1
13 | 185 to 186 | COC(=O)c1ccc(C)c(-n2c(C)cc(OCc3ccccc3CNC(=O)Nc3cc(C(C)(C)C)nn3-c3ccc(O)c(Cl)c3)c(Cl)c2=O)c1
14 | 230 to 233 | COc1nc(N)nc(-c2ccccc2)c1-c1ccc(=O)n(C(C)C)n1
15 | 166 to 167 | O=[N+]([O-])c1ccc2nc(-c3ccccc3)cc(Cl)c2c1
16 | 65 to 72 | Cc1cc(F)ccc1C(=C(C=CC(O)CC(=O)CC(=O)OC(C)(C)C)c1nnnn1C)c1ccc(F)cc1C (stereo not given)
17 | 149 to 151 | N#CNC(=Nc1ccncc1)NCC(O)COc1ccc(Cl)cc1 (stereo not given)
18 | 185 to 186 | Nc1cc(=O)n(Cc2ccc(-c3ccccc3)cc2)[nH]1
19 | 74 | COC(=O)c1cc(OC)c(Cl)c(C)c1Cl

Row | melting point [°C] | Structure (SMILES)
20 | 261 | CC(=O)Nc1ccc2nc(-c3ccccc3)cc(OCC(=O)N3CCOCC3)c2c1
21 | 100 | CCOC(=O)c1ccc(C=C2C=CN(CC)c3ccccc32)c([N+](=O)[O-])c1
22 | 203 to 205 | NNc1cc2c(nn1)CCN(C(=O)CCCc1ccccc1)C2
23 | 178 to 182 | CC1=C(c2cccc(C(F)(F)F)c2)n2ncc(C#N)c2N(C(=O)CCl)C1
24 | 155 to 158 | CC(=O)Oc1cc(N2C(=O)CC(SC3CCCCC3)C2=O)ccc1C(=O)O (stereo not given)
25 | 103 | O=C(c1cc(=O)c2cc(O)ccc2[nH]1)N1CCC(OCc2ccccc2)CC1
26 | 94 | CCCC12CCC(c3ccc(Cl)cc3)(OC1)OC2
27 | 123 to 124 | NC(=O)C(OCc1ccc(-c2ccc(Cl)cc2)cc1)(C(F)(F)F)C(F)(F)F
28 | 108 to 110 | CC#CCOc1ccc(S(=O)(=O)NC2(C(=O)O)CCCC2)cc1
29 | 127 to 128 | CCC(=O)N1Cc2cnn(C)c2-c2cc(Cl)ccc21
30 | 146 to 149 | Cn1ccc(=O)c2ccc(F)cc21
31 | 254 to 257 | CN1CCCc2cc(C=C3SC(=O)NC3=O)ccc21
32 | 292 to 296 | CC(=C1SC(=O)NC1=O)c1ccc(OCCOc2c(-c3ccc(F)cc3)n(C)c3cc(Cl)ccc3c2=O)cc1
33 | 184 to 185 | COc1cc(C(=O)NS(=O)(=O)c2ccccc2C)ccc1Cn1ncc2ccc(NC(=O)CC3CCCC3)cc21
34 | 118 to 119 | CCOC(=O)c1ccc(-c2cccc3cncn23)cc1
35 | 244 to 247 | Cc1c(F)c(F)c(F)c2c1c(=O)c(C(=O)O)cn2CCO
36 | 133 to 134 | COc1cc([C@H]2CS[C@@H](c3cc(OC)c(OC)c([N+](=O)[O-])c3)S2)cc(OC)c1OC (relative stereo)
37 | 87 to 88 | CCC(COC)(OC)c1cncc(O)c1 (stereo not given)

Row | Structure (SMILES) | melting point [°C]
38 | C#CC1(O)C=CC2C3CCC4=CC(=O)CCC4C3C(Cl)CC21CC (stereo not given) | 202
39 | CC1(C)C(C(=O)NC(=O)CN)C1(C)C | 176
40 | O=C(NC1CN2CCC1CC2)c1cccc2nc(-c3ccccc3)oc12 (stereo not given) | 179 to 180
